Test results as given in paper PMC11239671, “GolpHCat (TMEM87A), a unique voltage-dependent cation channel in Golgi apparatus, contributes to Golgi-pH maintenance and hippocampus-dependent memory” (Nature Communications, 2024).
Changes are numbered by the printed parent chain.

What was measured:
[1] = target: T1, TMEM87A (GolpHCat) (Homo sapiens, UniProt Q8NBN3); assay: cryo-EM structure at ~[…] Å with […] sodium gluconate; IC50 from whole-cell patch clamp in CHO-K1 cells; type: cell-based; design: full-length hTMEM87A, M1-E555 (isoform 1, NP_056312.2), EGFP-Twin-strep tag
T1 sequence (Q8NBN3 1-555): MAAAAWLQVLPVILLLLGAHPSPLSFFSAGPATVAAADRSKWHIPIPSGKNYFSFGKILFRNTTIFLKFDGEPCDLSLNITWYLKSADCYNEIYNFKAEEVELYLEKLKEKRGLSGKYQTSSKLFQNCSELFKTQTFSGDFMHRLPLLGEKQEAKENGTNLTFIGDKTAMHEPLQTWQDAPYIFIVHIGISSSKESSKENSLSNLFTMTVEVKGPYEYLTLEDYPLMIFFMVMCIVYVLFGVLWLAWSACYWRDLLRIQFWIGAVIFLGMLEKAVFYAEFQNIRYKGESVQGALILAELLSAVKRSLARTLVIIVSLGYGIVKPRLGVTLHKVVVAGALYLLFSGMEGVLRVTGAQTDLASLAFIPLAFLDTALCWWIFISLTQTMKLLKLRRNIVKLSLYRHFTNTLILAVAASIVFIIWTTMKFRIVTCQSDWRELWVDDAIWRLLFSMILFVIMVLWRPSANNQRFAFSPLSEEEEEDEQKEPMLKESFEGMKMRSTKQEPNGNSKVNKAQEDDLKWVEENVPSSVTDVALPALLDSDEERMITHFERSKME

[2] = target: T2, TMEM87A (GolpHCat) (Homo sapiens, UniProt Q8NBN3, A308M); assay: cryo-EM structure at ~[…] Å; co-purified lipid density; type: binding
T2 construct: full-length hTMEM87A, M1-E555
T2 sequence (Q8NBN3 1-555 A308M): T1 sequence (Q8NBN3 1-555) with A308M

[3] = target: T1, TMEM87A (GolpHCat); assay: cryo-EM structure at […] Å; co-purified lipid, assigned from density shape and Golgi lipid composition; type: binding; design: full-length hTMEM87A, M1-E555; modelled D38-P473

Row | SMILES | IC50 [1] [nM] | cryo-EM structure at ~3.1 Å; co-purified lipid density [2] | cryo-EM structure at 3.1 Å; co-purified lipid, assigned from density shape and G [3]
1 | O=C(O)[C@H](O)[C@@H](O)[C@H](O)[C@H](O)CO [gluconate] | 100 |  | 
2 | CCCCCCCC/C=C\CCCCCCCC(=O)O[C@H](COC(=O)CCCCCCCCCCCCCCC)COP(=O)(O)OCCN [PE, 1-palmitoyl-2-oleoyl-sn-glycerol-3-phosphoethanolamine] |  | the PE density in hTMEM87A A308M was displaced to a position similar to that of the S6 state | PE was co-purified with hTMEM87A, suggesting that PE tightly and stably binds to TMEM87A
